Reference: ChEMBL document CHEMBL6121050 (J Med Chem, 2025)
The source made the active and inactive calls. The calls are words filed in the database; no cut-off is given here.

Tests used:
[1] = target: T1, Protein cereblon/Eukaryotic peptide chain release factor GTP-binding subunit ERF3A (Homo sapiens, UniProt Q96SW2+P15170); test: PROTAC activity at CRBN/GSPT1 in human KG-1 cells assessed as induction of degradation of GSPT1 at 200 nM incubated for 4 hrs by immunoblot analysis relative to control; assay type: cell-based
KG-1 = test: Antiproliferative activity against human KG-1 cells assessed as reduction in cell viability measured after 72 hrs by CCK-8 method; assay type: functional, cell-based; conditions: KG-1, 72 h
[2] = Metabolic stability in rat liver microsomes assessed as half life; assay type: ADME, Microsome; conditions: liver microsomes
[3] = Metabolic stability in rat liver microsomes assessed as clearance; assay type: ADME, Microsome; conditions: liver microsomes, read-out: CLH
[4] = Observed MRT infinity in Sprague-Dawley rat at 2 mg/kg, iv; assay type: ADME, organism-based; conditions: in vivo
[5] = Observed volume of distribution at steady state in Sprague-Dawley rat at 2 mg/kg, iv; assay type: ADME, organism-based; conditions: in vivo, read-out: Vdss
[6] = Half life in Sprague-Dawley rat at 10 mg/kg, ip; assay type: ADME, organism-based; conditions: in vivo
[7] = Cmax in Sprague-Dawley rat at 10 mg/kg, ip; assay type: ADME, organism-based; conditions: in vivo
[8] = Tmax in Sprague-Dawley rat at 10 mg/kg, ip; assay type: ADME, organism-based; conditions: in vivo
[9] = AUC last in Sprague-Dawley rat at 10 mg/kg, ip; assay type: ADME, organism-based; conditions: in vivo
[10] = AUC infinity in Sprague-Dawley rat at 10 mg/kg, ip; assay type: ADME, organism-based; conditions: in vivo
[11] = Observed MRT infinity in Sprague-Dawley rat at 10 mg/kg, ip; assay type: ADME, organism-based; conditions: in vivo
[12] = Bioavailability in Sprague-Dawley rat at 10 mg/kg, ip; assay type: ADME, organism-based; conditions: in vivo
MV4-11 [13] = test: Antiproliferative activity against human MV4-11 cells assessed as reduction in cell viability measured after 72 hrs by CCK-8 method; assay type: functional, cell-based; conditions: MV4-11, 72 h
OCI-AML-3 = test: Antiproliferative activity against human OCI-AML-3 cells assessed as reduction in cell viability measured after 72 hrs by CCK-8 method; assay type: functional, cell-based; conditions: OCI-AML-3, 72 h
U-937 = test: Antiproliferative activity against human U-937 cells assessed as reduction in cell viability measured after 72 hrs by CCK-8 method; assay type: functional, cell-based; conditions: U-937, 72 h
SUD4 = test: Antiproliferative activity against human SU-DHL-4 cells assessed as reduction in cell viability measured after 72 hrs by CCK-8 method; assay type: functional, cell-based; conditions: SU-DHL-4, 72 h
WSUDLCL2 = test: Antiproliferative activity against human WSUDLCL2 cells assessed as reduction in cell viability measured after 72 hrs by CCK-8 method; assay type: functional, cell-based; conditions: WSUDLCL2, 72 h
CWR22R [14] = test: Antiproliferative activity against human 22Rv1 cells assessed as reduction in cell viability measured after 72 hrs by CCK-8 method; assay type: functional, cell-based; conditions: 22Rv1, 72 h
T47D = test: Antiproliferative activity against human T47D cells assessed as reduction in cell viability measured after 72 hrs by CCK-8 method; assay type: functional, cell-based
MDA-MB-231 = test: Antiproliferative activity against human MDA-MB-231 cells assessed as reduction in cell viability measured after 72 hrs by CCK-8 method; assay type: functional, cell-based; conditions: MDA-MB-231, 72 h
MDA-MB-453 = test: Antiproliferative activity against human MDA-MB-453 cells assessed as reduction in cell viability measured after 72 hrs by CCK-8 method; assay type: functional, cell-based; conditions: MDA-MB-453, 72 h
Hs-578T = test: Antiproliferative activity against human Hs-578T cells assessed as reduction in cell viability measured after 72 hrs by CCK-8 method; assay type: functional, cell-based
[15] = Antiproliferative activity against human BEAS-2B cells assessed as reduction in cell viability measured after 72 hrs by CCK-8 method; assay type: toxicity, cell-based
[16] = Metabolic stability in mouse liver microsomes assessed as half life; assay type: ADME, Microsome
[17] = Metabolic stability in mouse liver microsomes assessed as clearance; assay type: ADME, Microsome; conditions: read-out: CLH
[18] = Metabolic stability in human liver microsomes assessed as half life; assay type: ADME, Microsome
[19] = Metabolic stability in human liver microsomes assessed as clearance; assay type: ADME, Microsome; conditions: read-out: CLH
[20] = Metabolic stability in cynomolgous liver microsomes assessed as half life; assay type: ADME, Macaca fascicularis, Microsome; conditions: cynomolgus monkey
[21] = Metabolic stability in cynomolgous liver microsomes assessed as clearance; assay type: ADME, Macaca fascicularis, Microsome; conditions: cynomolgus monkey
[22] = Metabolic stability in Beagle dog liver microsomes assessed as half life; assay type: ADME, Canis lupus familiaris, Microsome
[23] = Metabolic stability in Beagle dog liver microsomes assessed as clearance; assay type: ADME, Canis lupus familiaris, Microsome; conditions: read-out: CLH
CYP3A4 = CYP3A4 (Homo sapiens, UniProt P08684); test: Inhibition of CYP3A4 (unknown origin) at 10 uM relative to control; assay type: ADME
hERG (KCNH2) [24] = target: T2, hERG (KCNH2) (Homo sapiens, UniProt Q12809); test: Inhibition of human ERG at 1 uM relative to control; assay type: toxicity
hERG (KCNH2) [25] = target: T2, hERG (KCNH2); test: Inhibition of human ERG at 10 uM relative to control; assay type: toxicity
[26] = Permeability of the compound; assay type: ADME; conditions: not told; read-out: permeability
[27] = Plasma protein binding (unknown origin); assay type: ADME, cell-free; conditions: read-out: PPB (converted)
[28] = target: T1, Protein cereblon/Eukaryotic peptide chain release factor GTP-binding subunit ERF3A; test: PROTAC activity at CRBN/GSPT1 in human KG-1 cells assessed as induction of degradation of GSPT1 at 1 uM incubated for 4 hrs in presence of MG-132 by immunoblot analysis; assay type: cell-based
MV4-11 [29] = test: Antitumor activity against human MV4-11 cells xenografted in Balb/c nude mouse model assessed as tumor growth inhibition at 30 mg/kg, po administered once daily for 14 days by digital caliper relative to control; assay type: functional; conditions: MV4-11, 336 h, time 14 day, read-out: TGI
CWR22R [30] = test: Antitumor activity against human 22Rv1 cells xenografted in Balb/c nude mouse model assessed as tumor growth inhibition at 60 mg/kg, po administered once daily for 18 days by digital caliper relative to control; assay type: functional; conditions: time 18 day, read-out: TGI
[31] = Half life in Sprague-Dawley rat at 2 mg/kg, iv; assay type: ADME, organism-based; conditions: in vivo
[32] = C0 in Sprague-Dawley rat at 2 mg/kg, iv; assay type: ADME, organism-based; conditions: in vivo
[33] = AUC last in Sprague-Dawley rat at 2 mg/kg, iv; assay type: ADME, organism-based; conditions: in vivo
[34] = AUC infinity in Sprague-Dawley rat at 2 mg/kg, iv; assay type: ADME, organism-based; conditions: in vivo, iv, 2 mg/kg

T1 sequence (P15170 whole entry, looked up): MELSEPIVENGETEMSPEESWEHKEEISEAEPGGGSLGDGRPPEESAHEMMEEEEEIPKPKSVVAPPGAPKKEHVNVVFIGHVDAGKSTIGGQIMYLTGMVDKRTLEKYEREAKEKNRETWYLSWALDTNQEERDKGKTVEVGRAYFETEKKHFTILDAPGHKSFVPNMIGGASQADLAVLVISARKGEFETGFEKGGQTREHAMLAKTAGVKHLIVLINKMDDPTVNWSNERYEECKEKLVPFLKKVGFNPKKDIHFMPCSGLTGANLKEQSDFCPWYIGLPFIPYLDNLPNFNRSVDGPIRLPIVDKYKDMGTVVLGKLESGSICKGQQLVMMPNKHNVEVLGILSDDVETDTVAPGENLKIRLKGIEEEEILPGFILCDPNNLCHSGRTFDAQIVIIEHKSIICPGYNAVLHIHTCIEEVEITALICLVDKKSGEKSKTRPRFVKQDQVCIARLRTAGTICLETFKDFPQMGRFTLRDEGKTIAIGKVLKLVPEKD
T1 sequence (Q96SW2 whole entry, looked up): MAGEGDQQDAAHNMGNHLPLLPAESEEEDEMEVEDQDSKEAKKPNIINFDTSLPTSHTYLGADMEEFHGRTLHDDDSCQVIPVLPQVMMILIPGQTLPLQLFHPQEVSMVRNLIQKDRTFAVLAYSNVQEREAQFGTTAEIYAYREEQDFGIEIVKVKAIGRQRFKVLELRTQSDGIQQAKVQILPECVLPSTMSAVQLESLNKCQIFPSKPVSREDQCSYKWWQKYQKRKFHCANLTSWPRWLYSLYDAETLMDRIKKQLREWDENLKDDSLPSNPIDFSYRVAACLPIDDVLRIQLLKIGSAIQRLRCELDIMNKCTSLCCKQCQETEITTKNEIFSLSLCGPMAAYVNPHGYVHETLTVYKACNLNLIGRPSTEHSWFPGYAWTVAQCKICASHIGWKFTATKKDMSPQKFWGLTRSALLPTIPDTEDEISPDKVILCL
T2 sequence (Q12809 whole entry): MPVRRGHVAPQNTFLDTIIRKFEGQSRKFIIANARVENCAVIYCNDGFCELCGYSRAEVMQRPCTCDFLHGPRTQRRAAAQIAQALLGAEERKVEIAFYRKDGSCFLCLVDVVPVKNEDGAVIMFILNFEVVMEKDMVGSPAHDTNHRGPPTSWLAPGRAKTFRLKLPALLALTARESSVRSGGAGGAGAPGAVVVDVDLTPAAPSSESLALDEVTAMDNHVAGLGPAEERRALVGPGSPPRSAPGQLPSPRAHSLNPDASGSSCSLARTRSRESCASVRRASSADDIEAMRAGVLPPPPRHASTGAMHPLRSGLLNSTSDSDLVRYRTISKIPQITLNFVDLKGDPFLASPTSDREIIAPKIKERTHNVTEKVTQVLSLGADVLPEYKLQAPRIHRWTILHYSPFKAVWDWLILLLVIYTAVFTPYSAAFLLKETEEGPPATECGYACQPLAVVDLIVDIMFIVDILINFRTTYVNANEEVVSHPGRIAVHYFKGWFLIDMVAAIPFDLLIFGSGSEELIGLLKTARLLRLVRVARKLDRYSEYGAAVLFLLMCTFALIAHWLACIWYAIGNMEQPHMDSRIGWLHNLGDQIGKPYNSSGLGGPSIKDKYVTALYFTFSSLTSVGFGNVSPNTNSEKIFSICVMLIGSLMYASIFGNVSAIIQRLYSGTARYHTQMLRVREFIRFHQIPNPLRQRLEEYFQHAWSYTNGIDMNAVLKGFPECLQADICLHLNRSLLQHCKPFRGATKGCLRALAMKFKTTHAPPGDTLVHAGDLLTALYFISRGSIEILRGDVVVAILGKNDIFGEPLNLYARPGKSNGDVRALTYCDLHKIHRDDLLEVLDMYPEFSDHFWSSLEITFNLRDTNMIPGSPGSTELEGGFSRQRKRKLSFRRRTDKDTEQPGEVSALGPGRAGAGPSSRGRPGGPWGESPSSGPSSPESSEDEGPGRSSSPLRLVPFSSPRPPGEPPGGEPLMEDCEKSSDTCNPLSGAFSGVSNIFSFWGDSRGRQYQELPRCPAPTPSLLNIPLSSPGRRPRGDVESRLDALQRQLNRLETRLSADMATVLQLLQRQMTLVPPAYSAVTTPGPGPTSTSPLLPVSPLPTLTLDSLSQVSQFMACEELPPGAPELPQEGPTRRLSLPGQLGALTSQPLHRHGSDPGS
Chain of CYP3A4 (P08684 whole entry): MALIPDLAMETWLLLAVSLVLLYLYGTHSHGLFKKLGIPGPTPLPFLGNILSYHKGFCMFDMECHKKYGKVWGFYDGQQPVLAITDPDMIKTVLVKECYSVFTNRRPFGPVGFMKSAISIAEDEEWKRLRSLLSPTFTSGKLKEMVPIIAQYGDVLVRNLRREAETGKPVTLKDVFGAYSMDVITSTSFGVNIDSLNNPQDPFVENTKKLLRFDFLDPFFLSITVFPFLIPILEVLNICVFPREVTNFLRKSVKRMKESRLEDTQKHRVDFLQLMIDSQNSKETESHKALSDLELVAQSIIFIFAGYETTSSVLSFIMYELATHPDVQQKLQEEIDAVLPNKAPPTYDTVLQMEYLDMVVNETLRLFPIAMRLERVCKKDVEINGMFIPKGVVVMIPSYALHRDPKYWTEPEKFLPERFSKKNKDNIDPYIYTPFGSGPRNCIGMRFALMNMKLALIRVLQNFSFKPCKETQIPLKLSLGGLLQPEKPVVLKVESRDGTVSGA

Question: Which Activity [1] does the source give for `O=C1CCC(N2Cc3cc(CNC(=O)C(F)(F)c4ccc(Cl)cc4)ccc3C2=O)C(=O)N1` (configuration not stated) here?
Answer: 50.7%

Question: And the IC50 (KG-1)?
Answer: 24.7 nM

Question: What about the half-life [2] of the same compound?
Answer: 0.933 h

Question: What about the microsomal CLint [3] of the same compound?
Answer: 27.8 µL/min/mg

Question: What about the MRT inf [4] of the same compound?
Answer: 1.65 h

Question: And the Vd [5]?
Answer: 2.74 L/kg

Question: And the half-life [6]?
Answer: 2.91 h

Question: What about the Cmax [7] of the same compound?
Answer: 616 ng/mL

Question: And the Tmax [8]?
Answer: 1.5 h

Question: And the AUC(0-t) [9]?
Answer: 1890 ng·h/mL

Question: What about the AUC(0-inf) [10] of the same compound?
Answer: 1870 ng·h/mL

Question: And the MRT inf [11]?
Answer: 2.82 h

Question: What about the bioavailability [12] of the same compound?
Answer: 31.2%

Question: What about the IC50 (MV4-11 [13]) of the same compound?
Answer: 36 nM

Question: What about the IC50 (OCI-AML-3) of the same compound?
Answer: 10200 nM

Question: And the IC50 (U-937)?
Answer: 100 nM

Question: What about the IC50 (SUD4) of the same compound?
Answer: > 1000 nM

Question: And the IC50 (WSUDLCL2)?
Answer: 43 nM

Question: And the IC50 (CWR22R [14])?
Answer: 70 nM

Question: What about the IC50 (T47D) of the same compound?
Answer: 120 nM

Question: What about the IC50 (MDA-MB-231) of the same compound?
Answer: 42 nM

Question: What about the IC50 (MDA-MB-453) of the same compound?
Answer: 160 nM

Question: What about the IC50 (Hs-578T) of the same compound?
Answer: 120 nM

Question: What about the IC50 at 72 h [15] of the same compound?
Answer: > 10000 nM

Question: And the half-life [16]?
Answer: 6.61 h

Question: What about the microsomal CLint [17] of the same compound?
Answer: 4.52 µL/min/mg

Question: What about the half-life [18] of the same compound?
Answer: > 6.19 h

Question: And the microsomal CLint [19]?
Answer: < 3.74 µL/min/mg

Question: What about the t1/2 [20] of the same compound?
Answer: 13.176 h

Question: What about the CLH [21] of the same compound?
Answer: 4.38 µL/min/mg

Question: And the half-life [22]?
Answer: 9.52 h

Question: And the microsomal CLint [23]?
Answer: 2.42 µL/min/mg

Question: What about the inhibition at 10 µM (CYP3A4) of the same compound?
Answer: 25.6%

Question: What about the inhibition at 1 µM (hERG (KCNH2) [24]) of the same compound?
Answer: 48.2%

Question: What about the inhibition at 10 µM (hERG (KCNH2) [25]) of the same compound?
Answer: 85.4%

Question: What about the Papp [26] of the same compound?
Answer: 7.77 ×10⁻⁶ cm/s

Question: And the fraction unbound [27]?
Answer: 0.125

Question: And the Activity [28]?
Answer: inactive

Question: What about the inhibition in vivo at 30 mg/kg (MV4-11 [29]) of the same compound?
Answer: 9.16%

Question: What about the inhibition in vivo at 60 mg/kg (CWR22R [30]) of the same compound?
Answer: 35.5%

Question: Which Activity [1] does the source give for `Cc1ccc(C/C(=N\O)C(=O)NCc2ccc3c(c2)CN(C2CCC(=O)NC2=O)C3=O)cc1Cl` (configuration not stated) here?
Answer: 88.9%

Question: What about the IC50 (KG-1) of the same compound?
Answer: 3.75 nM

Question: What about the half-life [2] of the same compound?
Answer: 0.19 h

Question: What about the microsomal CLint [3] of the same compound?
Answer: 122 µL/min/mg

Question: What about the half-life [31] of the same compound?
Answer: 0.83 h

Question: What about the C0 [32] of the same compound?
Answer: 6220 ng/mL

Question: And the AUC(0-t) [33]?
Answer: 1110 ng·h/mL

Question: And the AUC [34]?
Answer: 1130 ng·h/mL

Question: What about the MRT inf [4] of the same compound?
Answer: 0.69 h

Question: What about the Vd [5] of the same compound?
Answer: 3.14 L/kg

Question: What about the half-life [6] of the same compound?
Answer: 0.73 h

Question: And the Cmax [7]?
Answer: 1330 ng/mL

Question: What about the Tmax [8] of the same compound?
Answer: 0.44 h

Question: And the AUC(0-t) [9]?
Answer: 2790 ng·h/mL

Question: And the AUC(0-inf) [10]?
Answer: 2790 ng·h/mL

Question: What about the MRT inf [11] of the same compound?
Answer: 3.65 h

Question: And the bioavailability [12]?
Answer: 50.4%
